This is an account of results in patent publication US20250340557A1, “PYRIMIDINE DERIVATIVE” (ASKA PHARMACEUTICAL CO., LTD., priority 2022, published 2025).

Read-outs that look alike come from different tables or passages of the source.

The term IC50 denotes the point on the concentration scale where inhibition reaches its midpoint.

In this test the target is T1, human mPGES-1 (Homo sapiens, UniProt O14684).
T1 construct: made in house; host or cells: COS-1 cells (transient transfection; microsomal fraction used as enzyme)
T1 sequence (O14684 1-152): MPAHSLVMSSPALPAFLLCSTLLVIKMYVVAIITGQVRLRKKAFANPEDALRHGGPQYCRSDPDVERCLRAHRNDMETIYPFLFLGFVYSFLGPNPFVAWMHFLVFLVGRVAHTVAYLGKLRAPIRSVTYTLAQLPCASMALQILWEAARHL
As to the kind of experiment: Test for mPGES-1 inhibitory activity (microsomal enzyme, PGE2 EIA). The test is classed as biochemical. To be noted: 4° C., 4 minutes, read-out: h mPGES1 IC50. The procedure, abridged: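 IC50 values were derived from EIA-quantified PGE2 after a 4 min, 4 °C reaction with PGH2 at 1 μM final, stopped with ferric chloride/citric acid. Beforehand, compound (2% DMSO final) sat 15 min at 4 °C with human mPGES-1 microsomes from transiently transfected COS-1 cells. Buffer was sodium phosphate pH 7.2 containing 2.5 mM reduced glutathione and 1 mM EDTA.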

[1] abbreviates: microsomes from COS-1 cells transfected with human mPGES-1 cDNA, substrate PGH2 1 μM, PGE2 measured by EIA.
Where [2] appears, read: microsomes of COS-1 cells transfected with human mPGES-1 cDNA, PGH2 1 μM, PGE2 by EIA.

Take `CCc1nc(-c2c(C(F)(F)F)ccc(CNC(=O)[C@H]3CC[C@H](OCc4ccc(F)c(F)c4)CC3)c2F)[nH]c(=O)c1F` [Example 133, trans-4-[(3,4-difluorobenzyl)oxy]-N-[3-(4-ethyl-5-fluoro-6-oxo-1,6-dihydropyrimidin-2-yl)-2-fluoro-4-(trifluoromethyl)benzyl]cyclohexane-1-carboxamide]: the IC50 under setting [1] came out at 27 nM.

For the molecule `O=c1cc(C(F)(F)F)nc(-c2c(C(F)(F)F)ccc(CNC(=O)[C@H]3C[C@H](OCc4cc(Cl)ccc4F)C3)c2F)[nH]1` [Example 156, trans-3-[(5-chloro-2-fluorobenzyl)oxy]-N-{2-fluoro-3-[6-oxo-4-(trifluoromethyl)-1,6-dihydropyrimidin-2-yl]-4-(trifluoromethyl)benzyl}cyclobutane-1-carboxamide], the IC50 under setting [2] is below 1 nM.

As to `Cc1cccc2ccc(N3CC(C(=O)NCc4ccc(C(F)(F)F)c(-c5nc(C(F)(F)F)cc(=O)[nH]5)c4F)C3)nc12` [Example 6, N-{2-fluoro-3-[6-oxo-4-(trifluoromethyl)-1,6-dihydropyrimidin-2-yl]-4-(trifluoromethyl)benzyl}-1-(8-methylquinolin-2-yl)azetidine-3-carboxamide], the half-inhibitory concentration (IC50) under setting [1] was below 10 nM.

Regarding `O=C(NCc1ccc(C(F)(F)F)c(-c2nc(C(F)(F)F)cc(=O)[nH]2)c1)C1CCN(c2ccc(C(F)(F)F)cn2)CC1` [Example 50, N-{3-[6-oxo-4-(trifluoromethyl)-1,6-dihydropyrimidin-2-yl]-4-(trifluoromethyl)benzyl}-1-[5-(trifluoromethyl)pyridin-2-yl]piperidine-4-carboxamide], the IC50 under setting [1] is below 1 nM.

As to `Cc1nc(-c2c(C(F)(F)F)ccc(CNC(=O)[C@H]3CC[C@H](OCc4cccc(Cl)c4)CC3)c2F)[nH]c(=O)c1F` [Example 123, trans-4-[(3-chlorobenzyl)oxy]-N-[2-fluoro-3-(5-fluoro-4-methyl-6-oxo-1,6-dihydropyrimidin-2-yl)-4-(trifluoromethyl)benzyl]cyclohexane-1-carboxamide], the IC50 under setting [1] is below 1 nM.

As to `Cc1nc(-c2c(C(F)(F)F)ccc(CNC(=O)C3CCN(c4ccc(OC(F)(F)F)cc4)CC3)c2F)[nH]c(=O)c1F` [Example 72, N-[2-fluoro-3-(5-fluoro-4-methyl-6-oxo-1,6-dihydropyrimidin-2-yl)-4-(trifluoromethyl)benzyl]-1-[4-(trifluoromethoxy)phenyl]piperidine-4-carboxamide], the IC50 under setting [1] is below 1 nM.

Turning to `O=C(NCc1ccc(C(F)(F)F)c(-c2nc(C(F)(F)F)cc(=O)[nH]2)c1F)C1CCN(c2ncc(Cl)cc2Cl)CC1` [Example 30, 1-(3,5-dichloropyridin-2-yl)-N-{2-fluoro-3-[6-oxo-4-(trifluoromethyl)-1,6-dihydropyrimidin-2-yl]-4-(trifluoromethyl)benzyl}piperidine-4-carboxamide], under setting [1], the 50% inhibitory concentration (IC50) is below 1 nM.

Consider `O=C(NCc1ccc(C(F)(F)F)c(-c2nc(C(F)(F)F)cc(=O)[nH]2)c1F)C1Cc2ccccc2C1` [Example 280, N-{2-fluoro-3-[6-oxo-4-(trifluoromethyl)-1,6-dihydropyrimidin-2-yl]-4-(trifluoromethyl)benzyl}-2,3-dihydro-1H-indene-2-carboxamide], for which, under setting [2], the IC50 was below 1 nM.

On to `CCc1cc(=O)[nH]c(-c2c(C(F)(F)F)ccc(CNC(=O)[C@H]3C[C@H](OCc4ccccc4C(F)(F)F)C3)c2F)n1` [Example 198, trans-N-[3-(4-ethyl-6-oxo-1,6-dihydropyrimidin-2-yl)-2-fluoro-4-(trifluoromethyl)benzyl]-3-{[2-(trifluoromethyl)benzyl]oxy}cyclobutane-1-carboxamide], for which the half-inhibitory concentration (IC50) under setting [2] was determined as 1.4 nM.

Turning to `O=C(NCc1ccc(C(F)(F)F)c(-c2nc(C(F)(F)F)cc(=O)[nH]2)c1F)c1ccc(-c2ccc3nccn3n2)cc1` [Example 2, N-{2-fluoro-3-[6-oxo-4-(trifluoromethyl)-1,6-dihydropyrimidin-2-yl]-4-(trifluoromethyl)benzyl}-4-(imidazo[1,2-b]pyridazin-6-yl)benzamide], the IC50 under setting [1] was 28.7 nM.

Turning to `O=C(NCc1ccc(C(F)(F)F)c(-c2nc(C(F)(F)F)cc(=O)[nH]2)c1F)c1ccccc1C(F)(F)F` [Example 273, N-{2-fluoro-3-[6-oxo-4-(trifluoromethyl)-1,6-dihydropyrimidin-2-yl]-4-(trifluoromethyl)benzyl}-2-(trifluoromethyl)benzamide], under setting [2], the half-inhibitory concentration (IC50) stood at 8.4 nM.

In the case of `O=C(NCc1ccc(C(F)(F)F)c(-c2nc(C(F)(F)F)cc(=O)[nH]2)c1F)C1CCN(c2ccc(OC(F)(F)F)cn2)CC1` [Example 40, N-{2-fluoro-3-[6-oxo-4-(trifluoromethyl)-1,6-dihydropyrimidin-2-yl]-4-(trifluoromethyl)benzyl}-1-[5-(trifluoromethoxy)pyridin-2-yl]piperidine-4-carboxamide], the half-inhibitory concentration (IC50) under setting [1] was 15 nM.

As to `O=C(NCc1ccc(C(F)(F)F)c(-c2nc(C(F)(F)F)cc(=O)[nH]2)c1F)C1CCN(c2ncc(C(F)(F)F)cc2F)CC1` [Example 39, N-{2-fluoro-3-[6-oxo-4-(trifluoromethyl)-1,6-dihydropyrimidin-2-yl]-4-(trifluoromethyl)benzyl}-1-[3-fluoro-5-(trifluoromethyl)pyridin-2-yl]piperidine-4-carboxamide], the IC50 under setting [1] is below 1 nM.

In the case of `O=c1cc(C(F)(F)F)nc(-c2c(C(F)(F)F)ccc(CNC(=O)[C@H]3C[C@H](OCc4ccc(Cl)cc4F)C3)c2F)[nH]1` [Example 149, trans-3-[(4-chloro-2-fluorobenzyl)oxy]-N-{2-fluoro-3-[6-oxo-4-(trifluoromethyl)-1,6-dihydropyrimidin-2-yl]-4-(trifluoromethyl)benzyl}cyclobutane-1-carboxamide], the concentration for half-maximal inhibition (IC50) under setting [2] was below 1 nM.

For `O=C(NCc1ccc(C(F)(F)F)c(-c2nc(C(F)(F)F)cc(=O)[nH]2)c1F)C1CN(c2ccc(C(F)(F)F)cn2)C1` [Example 25, N-{2-fluoro-3-[6-oxo-4-(trifluoromethyl)-1,6-dihydropyrimidin-2-yl]-4-(trifluoromethyl)benzyl}-1-[5-(trifluoromethyl)pyridin-2-yl]azetidine-3-carboxamide], the IC50 under setting [1] is below 1 nM.

With `O=C(NCc1ccc(C(F)(F)F)c(-c2nc(C(F)(F)F)cc(=O)[nH]2)c1F)C1CCN(CCc2ccccc2)CC1` [Example 278, N-{2-fluoro-3-[6-oxo-4-(trifluoromethyl)-1,6-dihydropyrimidin-2-yl]-4-(trifluoromethyl)benzyl}-1-phenethylpiperidine-4-carboxamide], the IC50 under setting [2] amounted to 35 nM.

Consider `Cc1nc(-c2c(C(F)(F)F)ccc(CNC(=O)C3CCN(c4ncc(C(F)(F)F)cc4F)CC3)c2F)[nH]c(=O)c1F` [Example 48, N-[2-fluoro-3-(5-fluoro-4-methyl-6-oxo-1,6-dihydropyrimidin-2-yl)-4-(trifluoromethyl)benzyl]-1-[3-fluoro-5-(trifluoromethyl)pyridin-2-yl]piperidine-4-carboxamide], for which the half-inhibitory concentration (IC50) under setting [1] was below 1 nM.

For `Cc1nc(-c2c(C(F)(F)F)ccc(CNC(=O)C3(F)CCN(c4ccc(C(F)(F)F)cn4)CC3)c2F)[nH]c(=O)c1F` [Example 51, 4-fluoro-N-[2-fluoro-3-(5-fluoro-4-methyl-6-oxo-1,6-dihydropyrimidin-2-yl)-4-(trifluoromethyl)benzyl]-1-[5-(trifluoromethyl)pyridin-2-yl]piperidine-4-carboxamide], under setting [1], the IC50 is below 1 nM.

Take `Cc1nc(-c2c(C(F)(F)F)ccc(CNC(=O)[C@H]3CC[C@H](OCc4ccc(F)c(F)c4)CC3)c2F)[nH]c(=O)c1F` [Example 127, trans-4-[(3,4-difluorobenzyl)oxy]-N-[2-fluoro-3-(5-fluoro-4-methyl-6-oxo-1,6-dihydropyrimidin-2-yl)-4-(trifluoromethyl)benzyl]cyclohexane-1-carboxamide]: under setting [1], the half-inhibitory concentration (IC50) is below 1 nM.

For the molecule `Cc1cc(=O)[nH]c(-c2c(C(F)(F)F)ccc(CNC(=O)C3CCN(c4ncc(C(F)(F)F)cc4F)CC3)c2F)n1` [Example 49, N-[2-fluoro-3-(4-methyl-6-oxo-1,6-dihydropyrimidin-2-yl)-4-(trifluoromethyl)benzyl]-1-[3-fluoro-5-(trifluoromethyl)pyridin-2-yl]piperidine-4-carboxamide], the IC50 under setting [1] amounted to 21 nM.

For `O=C(NCc1ccc(C(F)(F)F)c(-c2nc(C(F)(F)F)cc(=O)[nH]2)c1F)C1CCN(c2cccc(Cl)c2Cl)CC1` [Example 69, 1-(2,3-dichlorophenyl)-N-{2-fluoro-3-[6-oxo-4-(trifluoromethyl)-1,6-dihydropyrimidin-2-yl]-4-(trifluoromethyl)benzyl}piperidine-4-carboxamide], the IC50 under setting [1] came out at 8.4 nM.

`O=c1cc(C(F)F)nc(-c2c(C(F)(F)F)ccc(CNC(=O)[C@H]3C[C@H](OCc4ccc(Cl)cc4)C3)c2F)[nH]1` [Example 163, trans-3-[(4-chlorobenzyl)oxy]-N-{3-[4-(difluoromethyl)-6-oxo-1,6-dihydropyrimidin-2-yl]-2-fluoro-4-(trifluoromethyl)benzyl}cyclobutane-1-carboxamide]: the IC50 under setting [2] is below 1 nM.

With `O=c1cc(C(F)F)nc(-c2c(C(F)(F)F)ccc(CNC(=O)[C@H]3C[C@H](OCc4ccccc4Cl)C3)c2F)[nH]1` [Example 161, trans-3-[(2-chlorobenzyl)oxy]-N-{3-[4-(difluoromethyl)-6-oxo-1,6-dihydropyrimidin-2-yl]-2-fluoro-4-(trifluoromethyl)benzyl}cyclobutane-1-carboxamide], the IC50 under setting [2] is below 1 nM.
